Results on eight compounds are retold here after PubChem BioAssay AID2060508 (Molecular Pharmacology Branch, DTP, NCI, 2025).

This assay has as its system 454973-116-R2-J3-PDC spheroids, viability, % test/control. In words: Anticancer human tumor 454973-116-R2-J3-PDC patient-derived pancreatic carcinoma cell line growth inhibition [GQUAD]. The note with it: spheroids with HUVEC and MSC; for viability, T/C: stronger effect = lower value. The source says: DNA G-quadruplex Stabilizer Agents in Combinations in Complex Spheroids
A high-throughput screen of multi-cell type tumor spheroids was designed to identify active combinations of DNA G-quadruplex stabilizer agents and targeted small molecules. Complex spheroids include a stromal component modeled by human endothelial cells (HUVEC) and fibroblasts modeled by human mesenchymal stem cells (MSCs). The concentration ranges selected for each drug and investigational agent were based upon clinically achievable concentrations if the clinical Cmax of the agent was known.
Compounds. The drugs and investigational agents: pidnarulex (CX-5461; NSC782164), APTO-253 (NSC789042), BRACO-19 (NSC847499), peposertib (NSC802822), ceralasertib (NSC780249), elimusertib (NSC800525), camonsertib (NSC841442), AZD-1390 (NSC803789), olaparib (NSC753686), talazoparib (NSC767125), ART-558 (NSC835418), sotorasib (NSC818433), MRTX-1133 (NSC836407), SN-38 (NSC673596), topotecan (NSC609699), etoposide (NSC141540), doxorubicin (NSC123127), gemcitabine (NSC613327), 5-fluorouracil (NSC19893), paclitaxel (NSC125973), vemurafenib (NSC761431), panobinostat (NSC761190), R-306465 (JNJ-16241199; NSC773264), adavosertib (NSC754352), TP-3654 (NSC805149), carboplatin (NSC241240), KSQ-4279 (NSC840948), and staurosporine (NSC755774) were obtained from the National Cancer Institute (NCI) Developmental Therapeutics Program Chemical Repository (34). The FDA-approved anticancer drug set is available from the NCI Developmental Therapeutics Program. […] The stock solutions were prepared in dimethyl sulfoxide (DMSO, Sigma-Aldrich, St. Louis, MO, cat. D2650) at 800-fold the tested concentration and stored at -70 degrees C prior to their use. All drugs and investigational agents were tested over a range starting from a high concentration at or near the clinical Cmax and decreasing in half-log increments. If the clinical Cmax for an agent had not been determined, the highest concentration tested was 10 microM.
2.3 Cell Culture. All cells were maintained in an incubator at 37 degrees C and 5% CO2 with 95% humidity. The PDC lines were cultured according to standard operating procedures established by the NCI PDMR. All PDCs were thawed and cultured in Matrigel-coated flasks prepared with a working solution of 1X Ham's F-12 nutrient mix, without supplementation (Invitrogen, cat. 11765054), 100 U/mL penicillin-streptomycin (Invitrogen, cat. 15140122), and 2.5% Matrigel (Corning Inc., cat. 354248) for the first three passages. The 857933-349-R-J2-PDC line was cultured in 6C/Colon 1B media, which includes advanced DMEM/F-12 (Thermo Fisher Scientific, cat. 12634028), 10 mM HEPES (Thermo Fisher Scientific, cat. 15630080), 1X GlutaMAX supplement (Thermo Fisher Scientific, cat. 35050061), 0.1 mg/mL primocin (InvivoGen, cat. ant-pm-2), 10% defined fetal bovine serum, heat inactivated (HyClone Laboratories Inc., cat. SH30070.03HI), 50% L-WRN conditioned media (ATCC, cat. CRL-3276), 1.25 mM N-Acetyl-L-cysteine (Sigma-Aldrich, cat. A9165), 10 mM nicotinamide (Sigma-Aldrich, cat. N0636), 1X B-27 supplement (Thermo Fisher Scientific, cat. 17504044), 1X N-2 supplement (Thermo Fisher Scientific, cat. 17502048), 10 microM Y-27632 dihydrochloride (Tocris Bioscience, cat. 1254), and 50 ng/mL human EGF recombinant protein (Thermo Fisher Scientific, cat. PHG0311). The 485176-168-R4-J1-PDC line was cultured in Panc media, which includes all 6C/Colon 1B media components plus 100 ng/mL human FGF-10 (Thermo Fisher Scientific, cat. 100-26), 500 nM SB-431542 (Selleckchem, cat. S1067), and gastrin (Tocris, cat. 3006).
[…]

SMILES strings stand for the structures. Several values for one entry are separate records, joined by “and”; a condition that tells them apart may be missing. Identical values can stand only once. Some results are limits rather than exact numbers.
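Further: spheroids exposed to compounds for seven days.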

In the case of `C=CC(=O)N1CCN(c2nc(=O)n(-c3c(C)ccnc3C(C)C)c3nc(-c4c(O)cccc4F)c(F)cc23)C(C)C1` (stereo unspecified) + Cc1cnc(CNC(=O)c2c(=O)c3ccc(N4CCCN(C)CC4)nc3n3c2sc2ccccc23)cn1, the IC50 is, setting by setting: (curve of first compound, second compound 0.0316 µM) greater than 10 µM; (curve of first compound, second compound 0.1 µM) greater than 10 µM; (curve of first compound, second compound 0.316 µM) greater than 10 µM; (curve of first compound, second compound 1 µM) greater than 10 µM; (curve of first compound, second compound 3.16 µM) greater than 10 µM; (curve of first compound, second compound 10 µM) less than 0.0316 µM. The viability, T/C (second compound 0.0316 µM, first compound 0.0316 µM) is 100%; the viability, T/C (second compound 0.0316 µM, first compound 0.1 µM) is 94.2%; the viability, T/C (second compound 0.0316 µM, first compound 0.316 µM) is 105%; the viability, T/C (second compound 0.0316 µM, first compound 1 µM) was 116%; the viability, T/C (second compound 0.0316 µM, first compound 3.16 µM) is 118%; the viability, T/C (second compound 0.0316 µM, first compound 10 µM) is 118%. Further, the viability, T/C is, setting by setting: (second compound 0.1 µM, first compound 0.0316 µM) 78.1%; (second compound 0.1 µM, first compound 0.1 µM) 80.1%; (second compound 0.1 µM, first compound 0.316 µM) 87.6%; (second compound 0.1 µM, first compound 1 µM) 96.9%; (second compound 0.1 µM, first compound 3.16 µM) 104%; (second compound 0.1 µM, first compound 10 µM) 97.1%. In addition, the viability, T/C reads like this: (second compound 0.316 µM, first compound 0.0316 µM) 79.2%; (second compound 0.316 µM, first compound 0.1 µM) 79.6%; (second compound 0.316 µM, first compound 0.316 µM) 71.1%; (second compound 0.316 µM, first compound 1 µM) 78.5%; (second compound 0.316 µM, first compound 3.16 µM) 85.8%; (second compound 0.316 µM, first compound 10 µM) 76.7%. Besides, the viability, T/C (second compound 1 µM, first compound 0.0316 µM) is 73.9%; the viability, T/C (second compound 1 µM, first compound 0.1 µM) was 72.4%; the viability, T/C (second compound 1 µM, first compound 0.316 µM) is 75.2%; the viability, T/C (second compound 1 µM, first compound 1 µM) is 81.1%; the viability, T/C (second compound 1 µM, first compound 3.16 µM) is 90.8%; the viability, T/C (second compound 1 µM, first compound 10 µM) is 73.4%. For the same compound, the viability, T/C is, setting by setting: (second compound 3.16 µM, first compound 0.0316 µM) 59.2%; (second compound 3.16 µM, first compound 0.1 µM) 64.3%; (second compound 3.16 µM, first compound 0.316 µM) 78.5%; (second compound 3.16 µM, first compound 1 µM) 74.4%; (second compound 3.16 µM, first compound 3.16 µM) 86.6%; (second compound 3.16 µM, first compound 10 µM) 76.7%. For the same compound, the viability, T/C runs as follows: (second compound 10 µM, first compound 0.0316 µM) 0.33%; (second compound 10 µM, first compound 0.1 µM) 19.3%; (second compound 10 µM, first compound 0.316 µM) 58.5%; (second compound 10 µM, first compound 1 µM) 70.6%; (second compound 10 µM, first compound 3.16 µM) 0.37%; (second compound 10 µM, first compound 10 µM) 1.42%.
For `CCc1c2c(nc3ccc(O)cc13)-c1cc3c(c(=O)n1C2)COC(=O)[C@]3(O)CC`, the viability, T/C (compound 0.000999 µM) is 67.3% and 74.7% and 64.5%; the viability, T/C (compound 0.00316 µM) is 29.2% and 22.9% and 21.4%; the viability, T/C (compound 0.00999 µM) is 22.2% and 25.2% and 19.8%; the viability, T/C (compound 0.0316 µM) is 14.2% and 15.5% and 15.7%; the viability, T/C (compound 0.0999 µM) is 9.13% and 8.23% and 8.16%; the viability, T/C (compound 0.316 µM) is 4.31% and 4.99% and 4.01%. Moreover, the IC50 (curve of compound) is 0.00176 µM and 0.00183 µM and 0.00151 µM.
`C#Cc1c(F)ccc2cc(O)cc(-c3ncc4c(N5CC6CCC(C5)N6)nc(OCC56CCCN5CC(F)C6)nc4c3F)c12` (stereo unspecified): the viability, T/C by setting is: (compound 0.0316 µM) 52.7% and 54.6% and 60.6%; (compound 0.1 µM) 42.3% and 39% and 39.8%; (compound 0.316 µM) 31.2% and 22.9% and 28.2%; (compound 1 µM) 27.5% and 20.6% and 21.6%; (compound 3.16 µM) 23.3% and 19.5% and 22%; (compound 10 µM) 19% and 15.4% and 15.2%. Moreover, where the note is “curve of compound”, the IC50 is 0.0423 µM and 0.0444 µM and 0.0567 µM.
Regarding `COc1cc(C2c3cc4c(cc3C(OC3OC5COC(C)OC5C(O)C3O)C3COC(=O)C23)OCO4)cc(OC)c1O` (stereo unspecified), the viability, T/C is, setting by setting: (compound 0.0316 µM) 106% and 98.1% and 115%; (compound 0.1 µM) 94.7% and 92.3% and 78.7%; (compound 0.316 µM) 85.6% and 89.4% and 87.1%; (compound 1 µM) 55.2% and 52.1% and 61.5%; (compound 3.16 µM) 23.5% and 22.8% and 25.1%; (compound 10 µM) 15.8% and 12.7% and 15.5%. For the same compound, the IC50 (curve of compound) is 1.17 µM and 1.13 µM and 1.39 µM.
For `CC1COCCN1c1cc(C2(O)CC3CCC(C2)O3)c2cnn(-c3ccn[nH]3)c2n1` (stereo unspecified), the viability, T/C runs as follows: (compound 0.0316 µM) 84.7% and 87.2% and 97.5%; (compound 0.1 µM) 58.4% and 59.4% and 64.2%; (compound 0.316 µM) 26.5% and 26.1% and 27.2%; (compound 1 µM) 18% and 21.5% and 23.2%; (compound 3.16 µM) 17.8% and 23.5% and 22.9%; (compound 10 µM) 12% and 10.9% and 14.2%. In addition, the IC50 (curve of compound) was 0.135 µM and 0.139 µM and 0.157 µM.
Regarding `Nc1ccn(C2OC(CO)C(O)C2(F)F)c(=O)n1` (stereo unspecified), the viability, T/C is, setting by setting: (compound 0.0316 µM) 19.1% and 19% and 20.8%; (compound 0.1 µM) 16.1% and 13.3% and 15.5%; (compound 0.316 µM) 15.3% and 17.1% and 18.8%; (compound 1 µM) 16.3% and 16.7% and 16.6%; (compound 3.16 µM) 17.3% and 14% and 17.2%; (compound 10 µM) 16.6% and 13.6% and 14.2%. For the same compound, the IC50 (curve of compound) was less than 0.0316 µM.
As for `CC[C@@]1(O)C(=O)OCc2c1cc1n(c2=O)Cc2cc3c(CN(C)C)c(O)ccc3nc2-1`, the viability, T/C by setting is: (compound 0.000999 µM) 104% (2×) and 105%; (compound 0.00316 µM) 108% and 109% and 101%; (compound 0.00999 µM) 97.4% and 95.7% and 98.8%; (compound 0.0316 µM) 63.9% and 62.8% and 59.8%; (compound 0.0999 µM) 18.8% and 18.6% and 21.4%; (compound 0.316 µM) 22% and 21.9% and 23.2%. Moreover, for the setting “curve of compound”, the IC50 was 0.0456 µM and 0.0442 µM and 0.0427 µM.
As to `O=C(c1cc(Cc2n[nH]c(=O)c3ccccc23)ccc1F)N1CCN(C(=O)C2CC2)CC1`, the viability, T/C was 101% and 114% and 107% (compound 0.0316 µM); 90.7% and 97.5% and 95.4% (compound 0.1 µM); 91.1% and 97.2% and 91.3% (compound 0.316 µM); 96.4% and 96.3% and 90.3% (compound 1 µM); 83.8% and 88.4% and 87.7% (compound 3.16 µM); 63.8% and 66.6% and 66.7% (compound 10 µM). The IC50 (curve of compound) was greater than 10 µM.

A word on the IC50: it is the concentration that gives 50% inhibition. Broadly, the viability, T/C is the ratio of treated to control.
